# Measurements taken from the supplement of paper PMC12463676, “Small-molecule dissolution of stress granules by redox modulation benefits ALS models” (Nature Chemical Biology, 2025).
# Compound: NC(=O)CCCCC1CCSS1 [lipoamide]
# Assay: thermal stability z-score vs DMSO; higher = more thermally stabilized by treatment
# Conditions: HeLa; lipoamide concentration 100 µM; arsenate co-treatment: none
# Protocol: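 Cellular thermal proteome profiling in HeLa cells. Cells were treated with 100 µM lipoamide for 1 h, with or without 1 mM arsenate for a further 1 h, then heated to ten temperatures (37-66.3 °C), and soluble protein was quantified by TMT mass spectrometry relative to 0.1% DMSO controls. The thermal stability score (sum of log2 fold changes minus the abundance score) was transformed to a z-score; mean of n = 3 experiments.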
# 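Also: each temperature applied for 3 min, abundance score taken as mean log2 fold change at the two lowest temperatures, z-score obtained by mean subtraction and division by SD.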
# UniProt Q99741, sequence (Q99741 whole entry): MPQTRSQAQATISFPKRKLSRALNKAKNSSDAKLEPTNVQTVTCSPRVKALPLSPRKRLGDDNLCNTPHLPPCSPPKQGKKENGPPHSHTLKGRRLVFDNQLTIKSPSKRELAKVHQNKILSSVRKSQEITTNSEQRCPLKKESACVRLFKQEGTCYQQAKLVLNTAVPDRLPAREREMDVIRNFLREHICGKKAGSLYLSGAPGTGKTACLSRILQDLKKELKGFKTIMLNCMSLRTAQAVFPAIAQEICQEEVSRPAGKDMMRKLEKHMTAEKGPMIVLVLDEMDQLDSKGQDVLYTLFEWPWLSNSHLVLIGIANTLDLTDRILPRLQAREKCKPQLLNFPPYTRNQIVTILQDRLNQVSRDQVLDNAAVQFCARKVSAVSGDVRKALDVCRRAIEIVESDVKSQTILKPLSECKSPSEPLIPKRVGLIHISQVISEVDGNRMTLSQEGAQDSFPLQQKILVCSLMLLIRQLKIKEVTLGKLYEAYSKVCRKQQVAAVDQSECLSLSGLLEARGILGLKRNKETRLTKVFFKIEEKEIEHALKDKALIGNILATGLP
# UniProt Q5JTV8, sequence (Q5JTV8 whole entry): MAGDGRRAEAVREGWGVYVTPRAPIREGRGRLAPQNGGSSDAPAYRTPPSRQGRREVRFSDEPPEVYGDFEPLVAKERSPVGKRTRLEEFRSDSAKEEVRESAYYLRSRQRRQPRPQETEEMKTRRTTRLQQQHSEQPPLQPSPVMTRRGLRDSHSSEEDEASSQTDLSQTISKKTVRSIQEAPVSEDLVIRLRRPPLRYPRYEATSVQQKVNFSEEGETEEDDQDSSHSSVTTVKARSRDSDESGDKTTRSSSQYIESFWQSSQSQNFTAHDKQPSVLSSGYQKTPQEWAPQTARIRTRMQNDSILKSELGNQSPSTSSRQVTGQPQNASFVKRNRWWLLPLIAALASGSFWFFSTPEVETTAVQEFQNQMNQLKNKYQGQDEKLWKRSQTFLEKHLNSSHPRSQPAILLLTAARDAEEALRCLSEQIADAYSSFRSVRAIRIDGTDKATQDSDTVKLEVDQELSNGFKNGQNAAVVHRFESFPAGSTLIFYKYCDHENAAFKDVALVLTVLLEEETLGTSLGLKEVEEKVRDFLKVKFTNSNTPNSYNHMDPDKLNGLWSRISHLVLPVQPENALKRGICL
# UniProt Q53EL6, sequence (Q53EL6 whole entry): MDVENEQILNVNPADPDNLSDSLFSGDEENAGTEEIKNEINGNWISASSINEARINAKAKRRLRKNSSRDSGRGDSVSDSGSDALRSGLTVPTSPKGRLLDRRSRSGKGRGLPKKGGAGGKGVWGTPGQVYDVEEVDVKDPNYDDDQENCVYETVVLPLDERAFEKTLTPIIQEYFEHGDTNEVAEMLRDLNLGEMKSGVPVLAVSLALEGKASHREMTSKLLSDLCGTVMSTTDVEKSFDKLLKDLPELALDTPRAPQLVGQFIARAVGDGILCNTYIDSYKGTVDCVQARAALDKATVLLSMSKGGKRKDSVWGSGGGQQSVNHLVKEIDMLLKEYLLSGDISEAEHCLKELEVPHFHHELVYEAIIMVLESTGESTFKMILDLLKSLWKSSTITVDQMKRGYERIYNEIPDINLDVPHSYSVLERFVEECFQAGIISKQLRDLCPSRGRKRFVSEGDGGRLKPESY
# UniProt P40121, sequence (P40121 whole entry): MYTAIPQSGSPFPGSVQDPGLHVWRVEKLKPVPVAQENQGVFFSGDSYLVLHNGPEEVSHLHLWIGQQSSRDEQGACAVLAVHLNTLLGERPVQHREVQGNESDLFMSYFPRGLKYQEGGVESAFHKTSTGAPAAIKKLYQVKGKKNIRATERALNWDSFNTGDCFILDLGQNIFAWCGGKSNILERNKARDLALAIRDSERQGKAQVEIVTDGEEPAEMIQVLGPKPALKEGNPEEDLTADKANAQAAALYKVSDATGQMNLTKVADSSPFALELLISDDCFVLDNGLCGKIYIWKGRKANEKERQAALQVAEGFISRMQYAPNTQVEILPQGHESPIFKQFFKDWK
# UniProt P31937, sequence (P31937 whole entry): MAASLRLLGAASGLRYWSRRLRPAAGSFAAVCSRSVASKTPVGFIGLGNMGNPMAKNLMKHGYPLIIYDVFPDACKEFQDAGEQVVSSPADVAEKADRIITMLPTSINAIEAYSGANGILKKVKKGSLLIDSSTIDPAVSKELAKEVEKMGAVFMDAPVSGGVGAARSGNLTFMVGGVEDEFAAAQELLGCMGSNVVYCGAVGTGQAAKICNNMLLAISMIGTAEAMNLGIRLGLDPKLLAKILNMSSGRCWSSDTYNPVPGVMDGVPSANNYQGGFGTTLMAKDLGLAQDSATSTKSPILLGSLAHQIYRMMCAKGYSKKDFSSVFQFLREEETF
# UniProt Q9NXK8, sequence (Q9NXK8 whole entry): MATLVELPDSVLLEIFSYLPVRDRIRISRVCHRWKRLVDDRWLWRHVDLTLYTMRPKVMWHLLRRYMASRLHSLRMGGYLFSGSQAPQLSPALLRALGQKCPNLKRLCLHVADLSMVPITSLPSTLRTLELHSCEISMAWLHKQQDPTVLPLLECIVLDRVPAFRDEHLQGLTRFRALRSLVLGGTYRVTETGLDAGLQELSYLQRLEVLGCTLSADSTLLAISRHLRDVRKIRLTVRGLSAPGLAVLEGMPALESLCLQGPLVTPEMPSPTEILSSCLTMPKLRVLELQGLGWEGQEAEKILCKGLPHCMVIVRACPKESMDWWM
# UniProt Q9Y2L5, sequence (Q9Y2L5 whole entry): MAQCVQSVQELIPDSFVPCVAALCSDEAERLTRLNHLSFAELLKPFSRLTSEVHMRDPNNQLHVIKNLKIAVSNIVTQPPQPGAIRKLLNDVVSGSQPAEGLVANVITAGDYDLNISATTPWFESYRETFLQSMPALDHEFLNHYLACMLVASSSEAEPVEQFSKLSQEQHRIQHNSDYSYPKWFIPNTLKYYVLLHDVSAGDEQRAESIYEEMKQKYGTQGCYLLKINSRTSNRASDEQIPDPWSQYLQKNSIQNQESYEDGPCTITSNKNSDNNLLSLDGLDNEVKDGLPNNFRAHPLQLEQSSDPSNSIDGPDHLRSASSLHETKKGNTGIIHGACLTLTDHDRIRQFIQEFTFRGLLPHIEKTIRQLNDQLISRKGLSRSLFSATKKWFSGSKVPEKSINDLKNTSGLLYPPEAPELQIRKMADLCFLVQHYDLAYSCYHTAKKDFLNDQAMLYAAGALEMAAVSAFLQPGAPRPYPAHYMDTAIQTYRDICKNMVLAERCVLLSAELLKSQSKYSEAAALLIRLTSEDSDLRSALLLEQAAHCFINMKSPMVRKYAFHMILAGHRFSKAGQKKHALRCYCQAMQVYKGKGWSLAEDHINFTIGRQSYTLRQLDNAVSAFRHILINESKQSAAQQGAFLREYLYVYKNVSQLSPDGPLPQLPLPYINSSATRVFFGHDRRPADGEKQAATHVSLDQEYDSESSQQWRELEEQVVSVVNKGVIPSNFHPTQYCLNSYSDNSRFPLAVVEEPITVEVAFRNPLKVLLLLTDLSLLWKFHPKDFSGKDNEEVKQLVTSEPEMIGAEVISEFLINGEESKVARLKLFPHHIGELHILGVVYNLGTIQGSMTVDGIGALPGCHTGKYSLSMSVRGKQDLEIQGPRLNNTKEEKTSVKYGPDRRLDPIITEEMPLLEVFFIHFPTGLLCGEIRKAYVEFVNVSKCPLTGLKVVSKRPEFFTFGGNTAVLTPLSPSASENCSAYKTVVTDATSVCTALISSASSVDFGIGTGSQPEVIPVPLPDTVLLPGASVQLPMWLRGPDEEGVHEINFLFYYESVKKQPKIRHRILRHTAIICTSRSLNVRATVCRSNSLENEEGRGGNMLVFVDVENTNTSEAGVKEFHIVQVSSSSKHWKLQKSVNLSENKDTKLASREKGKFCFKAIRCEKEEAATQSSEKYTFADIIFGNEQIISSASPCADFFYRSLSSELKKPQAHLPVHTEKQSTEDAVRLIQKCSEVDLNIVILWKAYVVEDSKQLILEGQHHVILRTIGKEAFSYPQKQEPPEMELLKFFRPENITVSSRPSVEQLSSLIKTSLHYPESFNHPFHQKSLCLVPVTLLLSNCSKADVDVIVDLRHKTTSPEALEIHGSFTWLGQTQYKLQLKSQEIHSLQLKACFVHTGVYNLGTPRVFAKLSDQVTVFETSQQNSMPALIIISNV
# UniProt P29558, sequence (P29558 whole entry): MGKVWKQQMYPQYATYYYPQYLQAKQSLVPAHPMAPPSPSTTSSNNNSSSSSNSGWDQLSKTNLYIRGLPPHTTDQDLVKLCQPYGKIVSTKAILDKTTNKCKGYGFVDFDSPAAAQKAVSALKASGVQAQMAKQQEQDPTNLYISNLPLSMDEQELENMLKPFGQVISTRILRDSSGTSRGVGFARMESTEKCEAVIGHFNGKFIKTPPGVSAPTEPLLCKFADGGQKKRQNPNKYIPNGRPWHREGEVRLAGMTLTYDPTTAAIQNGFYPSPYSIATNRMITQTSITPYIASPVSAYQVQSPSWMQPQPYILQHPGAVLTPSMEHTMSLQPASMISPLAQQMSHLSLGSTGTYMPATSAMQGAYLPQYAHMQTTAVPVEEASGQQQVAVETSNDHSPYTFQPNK
# UniProt Q9H173, sequence (Q9H173 whole entry): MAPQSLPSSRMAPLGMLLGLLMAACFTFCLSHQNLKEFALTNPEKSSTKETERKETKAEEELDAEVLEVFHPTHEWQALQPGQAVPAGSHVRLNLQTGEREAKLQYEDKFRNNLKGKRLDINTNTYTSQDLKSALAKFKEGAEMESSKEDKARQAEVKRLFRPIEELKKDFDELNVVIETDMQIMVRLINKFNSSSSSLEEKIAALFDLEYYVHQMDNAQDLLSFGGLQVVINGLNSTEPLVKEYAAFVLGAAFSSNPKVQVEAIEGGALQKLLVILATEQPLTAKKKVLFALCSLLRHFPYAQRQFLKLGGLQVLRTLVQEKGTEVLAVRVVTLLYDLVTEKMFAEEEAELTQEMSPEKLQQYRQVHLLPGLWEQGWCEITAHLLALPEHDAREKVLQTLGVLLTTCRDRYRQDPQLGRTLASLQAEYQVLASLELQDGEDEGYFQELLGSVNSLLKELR
row,Target,thermal stability z-score
1,SERPINB1 (UniProt P30740),0.191
2,FOXO1 (UniProt Q12778),-0.123
3,PCNP (UniProt Q8WW12),0.442
4,RPL7 (UniProt P18124),0.379
5,FBXL12 (UniProt Q9NXK8),0.0639
6,HMMR (UniProt O75330),0.233
7,RBMS1 (UniProt P29558),0.176
8,MRPL21 (UniProt Q7Z2W9),-0.591
9,CMPK1 (UniProt P30085),0.136
10,BPGM (UniProt P07738),-0.479
11,UGT8 (UniProt Q16880),-0.0518
12,PTAR1 (UniProt Q7Z6K3),0.408
13,SNAP23 (UniProt O00161),1.06
14,ITGA2 (UniProt P17301),0.235
15,CAPG (UniProt P40121),0.158
16,TRAPPC8 (UniProt Q9Y2L5),0.348
17,DDX23 (UniProt Q9BUQ8),0.137
18,PDCD4 (UniProt Q53EL6),-0.0889

row,Target,thermal stability z-score
1,NADK2 (UniProt Q4G0N4),0.491
2,VIM (UniProt P08670),1.15
3,RPS24 (UniProt P62847),-0.101
4,WBSCR22 (UniProt O43709),-0.46
5,CPNE1 (UniProt Q99829),0.0907
6,LTN1 (UniProt O94822),0.0878
7,HIBADH (UniProt P31937),-0.391
8,SGK1 (UniProt O00141),-0.0515
9,CDC6 (UniProt Q99741),0.0639
10,ABCC2 (UniProt Q92887),1.14
11,CPS1 (UniProt P31327),0.095
12,SUMO1 (UniProt P63165),-0.0784
13,SIL1 (UniProt Q9H173),-2.4
14,IDH1 (UniProt O75874),-0.257
15,ZBTB8OS (UniProt Q8IWT0),0.591
16,CTCF (UniProt P49711),-0.0166
17,GRIPAP1 (UniProt Q4V328),0.254
18,TOR1AIP1 (UniProt Q5JTV8),-2.09

# Compound: O=[As]([O-])(O)O.[K+] [potassium arsenate]
# Assay: as above
# Conditions: HeLa; arsenate concentration 1 mM
# Protocol: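 Cellular thermal proteome profiling in HeLa cells treated with 1 mM arsenate for 1 h (DMSO pretreatment), heated to ten temperatures (37-66.3 °C). Soluble protein was quantified by TMT mass spectrometry relative to DMSO controls; the thermal stability score was transformed to a z-score; mean of n = 3 experiments.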
row,Target,thermal stability z-score
1,DDOST (UniProt P39656),0.00935
2,WTAP (UniProt Q15007),-0.059
3,PPP1R8 (UniProt Q12972),0.412
4,PDCD6IP (UniProt Q8WUM4),2.4
5,NDUFAF5 (UniProt Q5TEU4),0.155
6,IDH3B (UniProt O43837),-1.28
7,CNPY3 (UniProt Q9BT09),-0.0267
8,LBR (UniProt Q14739),0.0853
9,TENM3 (UniProt Q9P273),-0.147
10,PSPC1 (UniProt Q8WXF1),0.449
11,ALDH9A1 (UniProt P49189),-1.15
12,CAV2 (UniProt P51636),1.51
13,HP1BP3 (UniProt Q5SSJ5),-1.08
14,KDM1A (UniProt O60341),-1.3
15,LRP1 (UniProt Q07954),-0.0899
16,POGLUT1 (UniProt Q8NBL1),1.16
17,DNPH1 (UniProt O43598),-0.0373
18,WDR18 (UniProt Q9BV38),0.122
19,SGTB (UniProt Q96EQ0),-0.308
20,MARCH6 (UniProt O60337),-0.855
21,LCMT2 (UniProt O60294),-0.332
22,FAM98A (UniProt Q8NCA5),-1.6
23,STRAP (UniProt Q9Y3F4),-0.875
24,DLGAP5 (UniProt Q15398),-0.0873

row,Target,thermal stability z-score
1,ERLIN1 (UniProt O75477),-1.15
2,COX7B (UniProt P24311),-0.0702
3,DCTN5 (UniProt Q9BTE1),-0.329
4,WDR4 (UniProt P57081),0.00243
5,DPH2 (UniProt Q9BQC3),-1.17
6,EPHA2 (UniProt P29317),-0.211
7,UQCRFS1 (UniProt P47985),-2.17
8,PRKCZ (UniProt Q05513),-0.0717
9,FPGS (UniProt Q05932),0.864
10,GPAM (UniProt Q9HCL2),-0.448
11,CTIF (UniProt O43310),0.233
12,SERPINB1 (UniProt P30740),0.23
13,FOXO1 (UniProt Q12778),0.182
14,PCNP (UniProt Q8WW12),0.289
15,RPL7 (UniProt P18124),-0.13
16,FBXL12 (UniProt Q9NXK8),-0.29
17,HMMR (UniProt O75330),0.594
18,RBMS1 (UniProt P29558),-0.265
19,MRPL21 (UniProt Q7Z2W9),0.0405
20,CMPK1 (UniProt P30085),2.02
21,BPGM (UniProt P07738),-1.82
22,UGT8 (UniProt Q16880),0.235
23,PTAR1 (UniProt Q7Z6K3),0.1
24,SNAP23 (UniProt O00161),-0.16

row,Target,thermal stability z-score
1,ITGA2 (UniProt P17301),0.278
2,CAPG (UniProt P40121),-0.915
3,TRAPPC8 (UniProt Q9Y2L5),0.311
4,DDX23 (UniProt Q9BUQ8),-0.836
5,PDCD4 (UniProt Q53EL6),-0.0393
6,NADK2 (UniProt Q4G0N4),-0.584
7,VIM (UniProt P08670),0.432
8,RPS24 (UniProt P62847),-0.971
9,WBSCR22 (UniProt O43709),-0.902
10,CPNE1 (UniProt Q99829),-0.934
11,LTN1 (UniProt O94822),0.0334
12,HIBADH (UniProt P31937),-1.36
13,SGK1 (UniProt O00141),0.187
14,CDC6 (UniProt Q99741),-0.258
15,ABCC2 (UniProt Q92887),-0.256
16,CPS1 (UniProt P31327),-1.39
17,SUMO1 (UniProt P63165),1.09
18,SIL1 (UniProt Q9H173),1.44
19,IDH1 (UniProt O75874),-0.596
20,ZBTB8OS (UniProt Q8IWT0),-1.01
21,CTCF (UniProt P49711),-1.14
22,GRIPAP1 (UniProt Q4V328),1.53
23,TOR1AIP1 (UniProt Q5JTV8),-0.146
